Key:
[1] = DMP433 (N-nitroso-ribociclib) content in ribociclib base (B10) and ribociclib succinate (B12, drug substance) batches and process experiments, LC-MS/MS or HPLC-HRMS; format: physicochemical; details: for DMP433 [ppm] LOQ (0.0625 ppm) / DMP433 [ppm], result in brackets (extrapolation, estimate of actual value below LOQ): ribociclib base (LEE011 B10); for DMP433 in LEE011 B12: laboratory scale salt formation; for DMP433 in LEE011-B12 (IP): nitrite in IPA 1.6 ppb; for DMP433 (LOQ: 30 ppb): LEE011-B10, laboratory scale 30 g experiments; for DMP433 in B10: starting material of 5 kg technical batches
Description: The method of testing for the presence and/or total amount of nitrosamines (such as the presence and/or total amount of N-nitroso-ribociclib in free or salt form) that is used in the methods of the invention may be any method which allows for the detection of nitrosamines in a composition. For example, the method may involve the Griess test described above. In such a method, the nitrosamines may be first denitrosated (e.g., by photolysis) to form a nitrite, which is then detected in the Griess test. Alternatively, the method may include high performance liquid chromatography (HPLC)- and/or gas chromatography (GC)-mass spectroscopy. An example of a method of testing for the presence and amount of nitrosamines (namely N-nitroso-ribociclib) is provided herein as Example 14. […]
2.7. […] Dissolve the substance using vortex and fill to volume with solvent (50% MeOH). • 3. Filter through 0.2 μm PVDF (polyvinylidene difluoride) or PTFE (polytetrafluoroethylene) filter into a HPLC amber vial, discard the first 0.5 ml.
A calibration curve for DMP433 is created, using calibration standard solutions L1-L6, and expressing the relationship between responses (peak areas) and standard concentrations (ng/ml). For L1, the average of 6 injections is used. Linear regression is weighed with 1/amount. […]

[2] = Nitrite content (ion chromatography; LC-FLD with DAN derivatisation; Griess test) in drug substance, intermediates, reagents, solvents, filters, excipients; format: physicochemical; details: for Nitrite in LEE011 B12: laboratory scale salt formation; for Nitrite (LOQ: 0.1 ppm) / Nitrite, value in brackets below LOQ: LEE011-B10, laboratory scale 30 g experiments; for Nitrite (ppb): LEE011-DS, further testing
Description: The method of testing for the presence and/or total amount of nitrites that is used in the methods of the invention may be any method which allows for the detection and/or quantitation of nitrites in a composition. For example, the method may be the Griess test. The Griess test allows for the detection and analysis of nitrite by the formation of a red-pink colour upon treatment of a nitrite-containing sample with the Griess reagent. The Griess reagent consists of two components in an acidic solution: an aniline derivative and a coupling agent. The most common arrangements use sulfanilamide and N-(1-naphthyl)ethylenediamine. For example 0.2% N-(1-naphthyl)ethylenediamine dihydrochloride and 2% sulfanilamide in 5% phosphoric acid may be used as a Griess reagent. Other aniline derivatives that may be used in a Griess reagent include sulfanilic acid, nitroaniline, and p-aminoacetophenone.
The Griess test involves two subsequent reactions, as shown in the scheme below. When the aniline derivative (e.g., sulfanilamide) is added, the nitrite ion reacts with it in the Griess diazotization reaction to form a diazonium salt, which then reacts with N-(1-naphthyl)ethylenediamine in an azo-coupling reaction, forming a pink-red azo-dye. Using a spectrophotometer, the nitrite concentration can then be quantitatively detected.
Additionally purified water; e.g. Milli Q • 2.
• 10 mM KH2PO4 Weigh accurately about 1.361 g of KH2PO4 into a 1 L volumetric flask, dissolve it in approximately 950 mL of additionally purified water and adjust the pH to 8.0 (with 2.7 M NaOH). Make up to the mark with additionally purified water. • 0.62 M HCl Add a few millilitres (e.g. 20 mL) of additionally purified water to a 200 mL volumetric flask, add 10.280 mL of concentrated HCl, mix and make up to the mark with additionally purified water. • 2.7 M NaOH Weigh accurately about 1.092 g of NaOH pellets into a 10 mL volumetric flask and dissolve it in additionally purified water. Cool to room temperature and make up to the mark with the same solvent. • Reagent DAN Weigh accurately about 5 mg of 2,3-diaminophthalene into a 100 mL volumetric flask and dissolve it with the solvent (methanol/water 1:1 (v/v)). Dilute up to the mark and ensure visual full dissolution. Use an amberglass flask. • Mobile phase A Mix 950 mL of 10 mM KH2PO4 solution (pH=8) and add 50 mL methanol. • Mobile phase B Methanol. • Solvent Methanol/water 1:1 (v/v), e.g. mix 2000 mL of additionally purified water and 2000 mL methanol.
• Instrument: HPLC with FLR detector; e.g. Waters Arc or equivalent • Column: C18 50×4.6 mm, 2.5 μm, e.g. XBridge C18 2.5 μm, 4.650 mm or equivalent
• Notes It is recommended to wear additional protective equipment (face mask and gloves) during weighing. • It is recommended to wash the column with 50% methanol after the analysis (example of preparation: mix 500 mL methanol and 500 m1 of additionally purified water). • It is recommended to rinse the injector with solvent after each injection. • All glassware and tools should be rinsed with additionally purified water before use. It is not recommended to leave the solutions open for a longer time before measurement. • Blank solution 1 Transfer 1 mL of solvent into a HPLC vial and perform derivatization as described below. • Blank solution 2 Transfer 10 mL of solvent into a single use glass vial and mix it on a magnetic stirrer for 30 min. Transfer the solution into a 5 mL centrifuge tube and centrifuge for 10 min at 12000 rpm. […] Fill up to the mark with solvent and mix. • (Cnitrite≈0.0005 mg/mL) • Comparison solution Transfer 10 mL of nitrite stock solution into a 500 mL volumetric flask. • (2 parallels) Fill up to the mark with solvent and mix. • Transfer 1 mL solution into a HPLC vial and perform the derivatization as described below. • (Cnitrite≈100 ppb) • Sample solution Accurately weigh about 1000 mg of the sample into a glass vial for single use and add 10 mL of solvent.

[3] = ribociclib base (LEE011 B10), ion chromatography
[4] = additional batches of ribociclib base LEE011-B10 (IP-1)
[5] = nitrite in iPrOH <5 ppb (1.3 ppb extrapolated)
[6] = nitrite in iPrOH <5 ppb (3.1 ppb extrapolated)

Compound: CN(C)C(=O)c1cc2cnc(Nc3ccc(N4CCNCC4)cn3)nc2n1C1CCCC1 [Batch 805193A072]
- DMP433 [ppm] LOQ (0.0625 ppm) [1]: LOQ
- DMP433 [ppm], result in brackets (extrapolation, estimate of actual value below LOQ) [1]: 0.060 ppm
- Nitrite [ppm] LOD (1 ppm) [2, 3]: <LOD

Compound: CN(C)C(=O)c1cc2cnc(Nc3ccc(N4CCNCC4)cn3)nc2n1C1CCCC1 [Batch 805193A073]
- DMP433 [ppm] LOQ (0.0625 ppm) [1]: LOQ
- DMP433 [ppm], result in brackets (extrapolation, estimate of actual value below LOQ) [1]: 0.030 ppm
- Nitrite [ppm] LOD (1 ppm) [2, 3]: <LOD

Compound: CN(C)C(=O)c1cc2cnc(Nc3ccc(N4CCNCC4)cn3)nc2n1C1CCCC1 [Batch 805193A074]
- DMP433 [ppm] LOQ (0.0625 ppm) [1]: LOQ
- DMP433 [ppm], result in brackets (extrapolation, estimate of actual value below LOQ) [1]: 0.029 ppm
- Nitrite [ppm] LOD (1 ppm) [2, 3]: <LOD

Compound: CN(C)C(=O)c1cc2cnc(Nc3ccc(N4CCNCC4)cn3)nc2n1C1CCCC1 [Batch 805193A077]
- DMP433 [ppb] [1, 4]: 51 ppb
- Nitrite [ppm] LOD (1 ppm) [2, 4]: <LOD

Compound: CN(C)C(=O)c1cc2cnc(Nc3ccc(N4CCNCC4)cn3)nc2n1C1CCCC1 [Batch 805193A078]
- DMP433 in LEE011-B10 ([1]; B10 starting material of resin experiments): DMP433: 92 ppb
- DMP433 [ppb] [1, 4]: 78 ppb
- DMP433 in LEE011 B12 ([1]; nitrite in iPrOH 119.6 ppb): 14238 ppb
- DMP433 in LEE011 B12 ([1]; nitrite in iPrOH 162.7 ppb): 18011 ppb
- DMP433 in LEE011 B12 [1, 5]: 995 ppb
- DMP433 in LEE011 B12 [1, 6]: 1513 ppb
- DMP433 in LEE011-B12 (IP) ([1]; resin treatment of B10/IPA solution): 220 ppb
- DMP433 in LEE011-B12 (IP) ([1]; resin treatment only IPA (nitrite carryover from B10 remained)): 528 ppb
- Nitrite [ppm] LOD (1 ppm) [2, 4]: <LOD
- Nitrite in LEE011 B12 [2, 5]: 448 ppb
- Nitrite in LEE011 B12 [2, 6]: 326 ppb

Compound: CN(C)C(=O)c1cc2cnc(Nc3ccc(N4CCNCC4)cn3)nc2n1C1CCCC1 [Batch 805193A095]
- DMP433 (LOQ: 30 ppb) [1]: 55.8 ppb
- Nitrite (LOQ: 0.1 ppm) [2]: < 0.1 ppm
- Nitrite, value in brackets below LOQ [2]: 0.08 ppm

Compound: CN(C)C(=O)c1cc2cnc(Nc3ccc(N4CCNCC4)cn3)nc2n1C1CCCC1 [Batch 805193A096]
- DMP433 (LOQ: 30 ppb) [1]: 70.5 ppb
- Nitrite (LOQ: 0.1 ppm) [2]: < 0.1 ppm
- Nitrite, value in brackets below LOQ [2]: 0.05 ppm

Compound: CN(C)C(=O)c1cc2cnc(Nc3ccc(N4CCNCC4)cn3)nc2n1C1CCCC1 [Batch 805193A097]
- DMP433 (LOQ: 30 ppb) [1]: 73.9 ppb
- Nitrite (LOQ: 0.1 ppm) [2]: < 0.1 ppm
- Nitrite, value in brackets below LOQ [2]: 0.07 ppm

Compound: CN(C)C(=O)c1cc2cnc(Nc3ccc(N4CCNCC4)cn3)nc2n1C1CCCC1 [Batch 805193A098]
- DMP433 (LOQ: 30 ppb) [1]: 78.8 ppb
- Nitrite (LOQ: 0.1 ppm) [2]: < 0.1 ppm
- Nitrite, value in brackets below LOQ [2]: 0.07 ppm

Compound: CN(C)C(=O)c1cc2cnc(Nc3ccc(N4CCNCC4)cn3)nc2n1C1CCCC1.O=C(O)CCC(=O)O [Batch 833268A258]
- DMP433 [ppb] ([1]; LEE011-DS, further testing): 380 ppb
- Nitrite (ppb) [2]: 369 ppb

Compound: CN(C)C(=O)c1cc2cnc(Nc3ccc(N4CCNCC4)cn3)nc2n1C1CCCC1.O=C(O)CCC(=O)O [Batch 833268A259]
- DMP433 [ppb] ([1]; LEE011-DS, further testing): 395 ppb
- Nitrite (ppb) [2]: 284 ppb

Compound: CN(C)C(=O)c1cc2cnc(Nc3ccc(N4CCNCC4)cn3)nc2n1C1CCCC1 [Batch 923037A002]
- DMP433 [ppm] LOQ (0.0625 ppm) [1]: LOQ
- DMP433 [ppm], result in brackets (extrapolation, estimate of actual value below LOQ) [1]: 0.047 ppm
- Nitrite [ppm] LOD (1 ppm) [2, 3]: <LOD

Compound: CN(C)C(=O)c1cc2cnc(Nc3ccc(N4CCNCC4)cn3)nc2n1C1CCCC1 [Batch 923037A005]
- DMP433 [ppm] LOQ (0.0625 ppm) [1]: LOQ
- DMP433 [ppm], result in brackets (extrapolation, estimate of actual value below LOQ) [1]: 0.048 ppm
- Nitrite [ppm] LOD (1 ppm) [2, 3]: <LOD

Compound: CN(C)C(=O)c1cc2cnc(Nc3ccc(N4CCNCC4)cn3)nc2n1C1CCCC1 [Batch B704193]
- DMP433 [ppb] [1, 4]: 57 ppb
- DMP433 [ppm] LOQ (0.0625 ppm) [1]: LOQ
- DMP433 [ppm], result in brackets (extrapolation, estimate of actual value below LOQ) [1]: 0.006 ppm
- Nitrite [ppm] LOD (1 ppm) [2, 4]: <LOD

Compound: CN(C)C(=O)c1cc2cnc(Nc3ccc(N4CCNCC4)cn3)nc2n1C1CCCC1 [Batch B705465]
- DMP433 [ppm] LOQ (0.0625 ppm) [1]: LOQ
- DMP433 [ppm], result in brackets (extrapolation, estimate of actual value below LOQ) [1]: 0.037 ppm

Compound: CN(C)C(=O)c1cc2cnc(Nc3ccc(N4CCNCC4)cn3)nc2n1C1CCCC1 [Batch B0705466]
- DMP433 [ppm] LOQ (0.0625 ppm) [1]: LOQ
- DMP433 [ppm], result in brackets (extrapolation, estimate of actual value below LOQ) [1]: 0.043 ppm

Compound: CN(C)C(=O)c1cc2cnc(Nc3ccc(N4CCNCC4)cn3)nc2n1C1CCCC1 [Batch B0705467]
- DMP433 [ppm] LOQ (0.0625 ppm) [1]: LOQ
- DMP433 [ppm], result in brackets (extrapolation, estimate of actual value below LOQ) [1]: 0.035 ppm

Compound: CN(C)C(=O)c1cc2cnc(Nc3ccc(N4CCNCC4)cn3)nc2n1C1CCCC1.O=C(O)CCC(=O)O [Batch B0705468]
- DMP433 [ppm] LOQ (0.0625 ppm) [1]: LOQ
- DMP433 [ppm], result in brackets (extrapolation, estimate of actual value below LOQ) [1]: 0.030 ppm

Compound: CN(C)C(=O)c1cc2cnc(Nc3ccc(N4CCNCC4)cn3)nc2n1C1CCCC1.O=C(O)CCC(=O)O [Batch B728969]
- N-nitroso-ribociclib ([1]; starting material used for technical batch NV1900): 0.21 ppm

Compound: CN(C)C(=O)c1cc2cnc(Nc3ccc(N4CCNCC4)cn3)nc2n1C1CCCC1.O=C(O)CCC(=O)O [LEE011-haenepa1-012]
- DMP433 in LEE011-B12 ([1]; washing of isolated ribociclib succinate, laboratory scale (conditions per experiment)): 746 ppb

Compound: CN(C)C(=O)c1cc2cnc(Nc3ccc(N4CCNCC4)cn3)nc2n1C1CCCC1.O=C(O)CCC(=O)O [LEE011-haenepa1-013]
- DMP433 in LEE011-B12 ([1]; re-slurry of LEE011-B12 in iPrOH at 10° C.): 64 ppm

Compound: CN(C)C(=O)c1cc2cnc(Nc3ccc(N4CCNCC4)cn3)nc2n1C1CCCC1.O=C(O)CCC(=O)O [Technical batch 1]
- DMP433 in B10 [1]: 55.8 ppb

Compound: CN(C)C(=O)c1cc2cnc(Nc3ccc(N4CCNCC4)cn3)nc2n1C1CCCC1.O=C(O)CCC(=O)O [Technical batch 2]
- DMP433 in B10 [1]: 55.8 ppb
- reduction of the amount of DMP433 formed by use of distilled iPrOH ([1]; technical batch 2 (distilled) vs technical batch 1 (non-distilled)): approx. 50%

Reference: patent publication US20250319032A1, “PHARMACEUTICAL COMPOSITIONS OF RIBOCICLIB” (Novartis AG, priority 2024, published 2025)
